From ChEMBL document CHEMBL2331238, “Xanthoquinodins from the endolichenic fungal strain Chaetomium elatum” (J Nat Prod, 2013) come the findings set out here.

Where only a bound is given, the exact number is not on record here.

What all share (type): functional, cell-based
One assay concerns HL-60. As to the kind of experiment: Cytotoxicity against human HL60 cells assessed as cell viability measured after 48 hrs by MTT assay. To be noted: HL-60, 48 h.
The subject of the next assay is A549. As to the kind of experiment: Cytotoxicity against human A549 assessed as cell viability measured after 48 hrs by MTT assay. To be noted: A549, 48 h.
The subject of another assay is SW480. The assay is described as follows: Cytotoxicity against human SW480 assessed as cell viability measured after 48 hrs by MTT assay. To be noted: SW480, 48 h.
The test system of another assay is MCF7. The assay is described as follows: Cytotoxicity against human MCF7 assessed as cell viability measured after 48 hrs by MTT assay. To be noted: MCF7, 48 h.
The subject of a further assay is SMMC-7721. As to the kind of experiment: Cytotoxicity against human SMMC7721 assessed as cell viability measured after 48 hrs by MTT assay. To be noted: SMMC-7721, 48 h.

Turning to `CC(=O)O[C@H]1C(=O)[C@@]2(C)[C@H]([C@H](OC(=O)c3ccccc3)[C@]3(O)C[C@H](OC(=O)[C@H](O)[C@@H](NC(=O)c4ccccc4)c4ccccc4)C(C)=C1C3(C)C)[C@]1(OC(C)=O)CO[C@@H]1C[C@@H]2O` [PACLITAXEL], the IC50 in the assay with HL-60, in the assay with A549, in the assay with SW480, in the assay with MCF7 and in the assay on SMMC-7721 was less than 0.008 µM in each case.
Consider `COC(=O)[C@@]12Oc3cc4c(c(O)c3C(=O)C1=C(O)CC[C@@H]2O)[C@@H]1C=C[C@@]2(C4)C(=O)c3cc(C)cc(O)c3C(O)=C2C1=O` [XANTHOQUINODIN A1], for which the IC50 in the assay on HL-60 turned out to be 6.22 µM; in the assay with A549, 3.33 µM; in the assay on SW480, 28.8 µM; with MCF7, 14.2 µM; in the assay on SMMC-7721 it was 8 µM.
The matching figures for `COC(=O)[C@]12Oc3cc4c(c(O)c3C(=O)C1=C(O)CC[C@@H]2O)[C@@H]1C=C[C@@]2(C4)C(=O)c3cc(C)cc(O)c3C(O)=C2C1=O` [XANTHOQUINODIN A2]: 5.5 µM, 4.04 µM, greater than 40 µM, 20.8 µM and 6.77 µM.
With `COC(=O)[C@]1([C@@H]2CCC(=O)O2)CC(=O)c2c(cc3c(c2O)[C@@H]2C=C[C@@]4(C3)C(=O)c3cc(C)cc(O)c3C(O)=C4C2=O)O1` [XANTHOQUINODIN A3], the IC50 was determined as 4.18 µM with HL-60; 15.3 µM in the assay on A549; 15.5 µM in the assay on SW480; 7.47 µM in the assay on MCF7; 16.7 µM with SMMC-7721.
On to `COC(=O)[C@]1([C@@H]2CCC(=O)O2)CC(=O)c2c(cc3c(c2O)[C@@H]2C=C[C@]4(C3)C(=C(O)c3c(O)cc(C)cc3[C@@H]4O)C2=O)O1` [XANTHOQUINODIN A4], for which the IC50 with HL-60 was greater than 40 µM; with A549, 25.5 µM; in the assay on SW480, 18.9 µM; with MCF7, 31.2 µM; with SMMC-7721, 19.2 µM.
The matching figures for `COC(=O)CC[C@H](O)[C@@]1(C(=O)OC)CC(=O)c2c(cc3c(c2O)[C@@H]2C=C[C@]4(C3)C(=C(O)c3c(O)cc(C)cc3[C@@H]4O)C2=O)O1` [XANTHOQUINODIN A5]: 26.6 µM, 18.6 µM, 16.2 µM, 24 µM and 16.8 µM.
The matching figures for `COC(=O)[C@]12Oc3cc4c(c(O)c3C(=O)C1=C(O)CC[C@@H]2O)[C@@H]1C=C[C@]2(C4)C(=C(O)c3c(O)cc(C)cc3[C@@H]2O)C1=O` [XANTHOQUINODIN A6]: 3.75 µM, 2.04 µM, 6.44 µM, 5.64 µM and 2.87 µM.
The matching figures for `COC(=O)[C@]12Oc3c(c(O)cc4c3[C@@H]3C=C[C@]5(C4)C(=C(O)c4c(O)cc(C)cc4[C@@H]5O)C3=O)C(=O)C1=C(O)CC[C@@H]2O` [XANTHOQUINODIN B4]: 3.01 µM, 25.1 µM, greater than 40 µM, 30 µM and 27.7 µM.
For the compound `COC(=O)[C@@]12Oc3c(c(O)cc4c3[C@@H]3C=C[C@]5(C4)C(=C(O)c4c(O)cc(C)cc4[C@@H]5O)C3=O)C(=O)C1=C(O)CC[C@@H]2O` [XANTHOQUINODIN B5], the IC50 was 4.74 µM in the assay on HL-60; 11.4 µM in the assay with A549; greater than 40 µM in the assay on SW480; 38.2 µM in the assay with MCF7; 15 µM in the assay with SMMC-7721.
